Experiments:
[1] = biological target: T1, Histone-lysine N-methyltransferase EHMT2 (Homo sapiens, UniProt Q96KQ7); experiment: Inhibition G9a (unknown origin)
T1 sequence (Q96KQ7 whole entry): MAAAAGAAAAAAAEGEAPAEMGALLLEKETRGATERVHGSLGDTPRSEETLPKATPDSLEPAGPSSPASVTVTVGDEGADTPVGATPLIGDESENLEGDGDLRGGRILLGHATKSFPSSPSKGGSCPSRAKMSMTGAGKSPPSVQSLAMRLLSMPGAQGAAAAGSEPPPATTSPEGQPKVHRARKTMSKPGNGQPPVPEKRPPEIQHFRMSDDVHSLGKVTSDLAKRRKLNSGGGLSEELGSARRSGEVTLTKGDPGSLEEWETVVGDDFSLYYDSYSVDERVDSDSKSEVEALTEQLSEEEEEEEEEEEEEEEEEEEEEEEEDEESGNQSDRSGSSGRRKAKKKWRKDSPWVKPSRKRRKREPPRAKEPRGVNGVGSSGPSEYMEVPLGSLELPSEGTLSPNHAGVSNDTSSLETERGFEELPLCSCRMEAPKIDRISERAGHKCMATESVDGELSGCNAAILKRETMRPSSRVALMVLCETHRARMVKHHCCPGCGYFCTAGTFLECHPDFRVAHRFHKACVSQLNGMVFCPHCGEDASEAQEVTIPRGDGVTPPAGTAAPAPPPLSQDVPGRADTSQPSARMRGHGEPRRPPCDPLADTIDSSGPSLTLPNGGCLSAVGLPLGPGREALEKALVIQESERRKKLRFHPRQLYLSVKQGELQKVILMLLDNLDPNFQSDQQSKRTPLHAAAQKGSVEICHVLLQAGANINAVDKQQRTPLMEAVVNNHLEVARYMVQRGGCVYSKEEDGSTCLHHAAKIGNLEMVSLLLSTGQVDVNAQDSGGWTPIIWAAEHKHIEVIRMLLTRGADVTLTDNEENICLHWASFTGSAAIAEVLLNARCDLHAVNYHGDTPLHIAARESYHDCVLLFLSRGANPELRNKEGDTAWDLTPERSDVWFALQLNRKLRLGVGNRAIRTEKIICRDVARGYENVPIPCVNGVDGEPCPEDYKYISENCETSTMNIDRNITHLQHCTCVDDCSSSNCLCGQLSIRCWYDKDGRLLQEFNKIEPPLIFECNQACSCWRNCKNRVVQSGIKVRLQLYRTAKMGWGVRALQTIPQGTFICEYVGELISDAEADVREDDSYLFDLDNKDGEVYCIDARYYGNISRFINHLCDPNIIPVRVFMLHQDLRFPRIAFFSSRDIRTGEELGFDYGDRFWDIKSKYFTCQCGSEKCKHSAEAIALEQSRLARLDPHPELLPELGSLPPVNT

[2] = biological target: T1, Histone-lysine N-methyltransferase EHMT2; experiment: Inhibition of recombinant human G9a using biotinylated-Histone H3 peptide (1 to 21 residues) after 30 mins in presence of SAM by AlphaLISA assay
[3] = Metabolic stability in human liver microsomes assessed as parent compound turn over percentage at 1 mM preincubated for 5 mins followed by NADPH addition and measured for 60 mins by UHPLC analysis; format: ADME, Microsome; conditions: read-out: Drug metabolism
[4] = Apparent permeability of the compound after 24 hrs by PAMPA; format: ADME
[5] = Apparent permeability of the compound after 24 hrs by BBB-PAMPA; format: ADME

Row | Structure (SMILES) | IC50 [2] [nM] | other results
1 | COc1cc2c(NC3CCN(CCCCCN)CC3)nc(NCCCN(C)C)nc2cc1OCCCCCN | – | IC50 [1]: 160 nM
2 | COc1cc2c(cc1OCCCN1CCCC1)N=C(c1ccccc1)CN=C2NC1CCN(C(C)C)CC1 | 1090 | –
3 | COc1cc2c(cc1OCCCN1CCCC1)NC(C1CCCCC1)CN=C2NC1CCN(C(C)C)CC1 (stereo not drawn) | 955 | –
4 | COc1cc2c(cc1OCCCN1CCCC1)N=C(C1CCCCC1)CC(NC1CCN(C(C)C)CC1)=N2 | 2980 | –
5 | COc1cc2c(cc1OCCCN1CCCC1)NC(c1ccccc1)CN=C2NC1CCN(C(C)C)CC1 (stereo not drawn) | 2090 | –
6 | COc1cc2c(NC3CCN(C(C)C)CC3)nc(C3CCCCC3)nc2cc1OCCCN1CCCC1 | – | metabolised at 1 h [3]: 2.93%; Papp [4]: 0.49 ×10⁻⁷ cm/s; Papp [5]: 0.19 ×10⁻⁷ cm/s
